Publication PMC6429507, “Triterpene-Based Carboxamides Act as Good Inhibitors of Butyrylcholinesterase” (Molecules, 2019)
Counter-ions that a name gives are not always drawn. Like-named read-outs stand apart in the source and are kept apart here.

What was measured:
[1] = target: acetylcholinesterase (AChE, electric eel) (Electrophorus electricus, UniProt O42275); conditions: for Grade of inhibition in% AChE / Ki' (uncompetitive inhibition) / Ki: mean ± SE; for Type of Inhibition / Ki' (uncompetitive inhibition) / Ki: AChE, electric eel; for Ki: read-out: Ki (competitive inhibition)
acetylcholinesterase (AChE, electric eel), sequence (O42275 24-633): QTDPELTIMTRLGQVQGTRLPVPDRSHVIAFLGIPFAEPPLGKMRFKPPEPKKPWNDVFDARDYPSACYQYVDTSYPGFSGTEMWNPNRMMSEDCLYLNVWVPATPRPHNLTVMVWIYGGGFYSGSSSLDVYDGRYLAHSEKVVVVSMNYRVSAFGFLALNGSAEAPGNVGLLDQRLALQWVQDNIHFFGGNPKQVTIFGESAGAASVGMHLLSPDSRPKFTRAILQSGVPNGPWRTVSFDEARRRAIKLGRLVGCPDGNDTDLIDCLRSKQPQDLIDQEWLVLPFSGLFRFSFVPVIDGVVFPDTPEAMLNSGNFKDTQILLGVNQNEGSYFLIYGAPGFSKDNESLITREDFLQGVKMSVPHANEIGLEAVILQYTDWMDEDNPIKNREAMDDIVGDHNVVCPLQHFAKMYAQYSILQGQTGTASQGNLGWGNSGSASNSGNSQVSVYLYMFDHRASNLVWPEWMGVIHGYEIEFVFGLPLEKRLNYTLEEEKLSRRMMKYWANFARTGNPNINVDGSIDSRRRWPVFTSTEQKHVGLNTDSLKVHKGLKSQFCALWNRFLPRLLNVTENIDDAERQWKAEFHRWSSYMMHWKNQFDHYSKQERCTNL
Excerpt: (§1) In this study, carboxamides with different triterpenoic backbones (ursolic, oleanolic, maslinic, betulinic, and platanic acids), and various amine residues (Scheme 1), were investigated.
(§2) A TECAN SpectraFluorPlus working in the kinetic mode and measuring the absorbance at λ = 415 nm was used for the enzymatic studies. Acetylcholinesterase (from Electrophorus electricus), 5,5′-dithiobis-(2-nitrobenzoic acid) (DTNB) and acetylthiocholine iodide were purchased from Sigma. Butyrylcholinesterase (from equine serum) was purchased from Fluka. Preparation of the solutions, assay procedure, as well as molecular modeling conditions can be found in the Supplementary Materials.
(§3) 3.1 Preparation of the solutions
(§4) Preparation of 50 mM Tris-HCl buffer solutions: Tris(hydroxymethyl)-aminomethane (606 mg) was dissolved in bidestilled water (100 mL) and adjusted with HCl to a pH of 8.0 ± 0.1. Buffers were freshly prepared and stored in the refrigerator. AChE solution 2.005 U/mL: the enzyme (271 U/mg, 0.037 mg) was dissolved in freshly prepared buffer pH 8.0 (5 mL) containing NaN3 (0.98 mg). BChE solution 2.040 U/mL: the enzyme (7.54 U/mg, 1.353 mg) was dissolved in freshly prepared buffer pH 8.0 (5 mL) containing NaN3 (0.98 mg). DTNB solution 3 mM: DTNB (23.8 mg) was dissolved in freshly prepared buffer pH 8.0 (20 mL) containing NaCl (116.8 mg) and MgCl2 (38.0 mg). ATChI solution 15 mM:
(§5) ATChI (43.4 mg) was dissolved in bidestilled water (10 mL). All solutions were stored in Eppendorf caps in the refrigerator or in the freezer, if necessary. The pure compounds were […]
(§6) dissolved in bidistilled water. The final concentrations for the enzymatic assay were obtained by diluting the stock solution with bidistilled water.
(§7) A mixture of the DTNB solution (125 µL), enzyme solution (25 µL) and compounds solutions (25 µL, 3 different concentrations and once blank water) was prepared and incubated at 30 °C for 20 min. The substrate (25 µL, 4 different concentrations) was added to start the enzymatic reaction. The absorbance data (l = 415 nm) was recorded under a controlled temperature of 30 °C for 30 min at 1 min intervals. The substrate concentrations in the test were as follows: […]
(§8) determined as the quotient of the slopes (compound divided by blank) of the linear ranges.
(§9) The used substrate concentration was 0.625 mM. The absorbance data was recorded under a controlled temperature of 30 °C for 10 min.

[2] = target: T1, butyrylcholinesterase (BChE, equine serum) (Equus caballus, UniProt P81908); experiment: Ellman's assay, butyrylcholinesterase inhibition; assay type: biochemical; conditions: for Grade of inhibition in% BChE: mean ± SE; for Type of Inhibition / Ki′ (uncompetitive inhibition) / Ki: BChE, equine serum; for Ki′ (uncompetitive inhibition) / Ki: Ellman's assay; for Ki: read-out: Ki (competitive inhibition)
T1 construct: Butyrylcholinesterase (from equine serum) was purchased from Fluka; purchased Fluka; host or cells: equine serum
T1 sequence (P81908 whole entry): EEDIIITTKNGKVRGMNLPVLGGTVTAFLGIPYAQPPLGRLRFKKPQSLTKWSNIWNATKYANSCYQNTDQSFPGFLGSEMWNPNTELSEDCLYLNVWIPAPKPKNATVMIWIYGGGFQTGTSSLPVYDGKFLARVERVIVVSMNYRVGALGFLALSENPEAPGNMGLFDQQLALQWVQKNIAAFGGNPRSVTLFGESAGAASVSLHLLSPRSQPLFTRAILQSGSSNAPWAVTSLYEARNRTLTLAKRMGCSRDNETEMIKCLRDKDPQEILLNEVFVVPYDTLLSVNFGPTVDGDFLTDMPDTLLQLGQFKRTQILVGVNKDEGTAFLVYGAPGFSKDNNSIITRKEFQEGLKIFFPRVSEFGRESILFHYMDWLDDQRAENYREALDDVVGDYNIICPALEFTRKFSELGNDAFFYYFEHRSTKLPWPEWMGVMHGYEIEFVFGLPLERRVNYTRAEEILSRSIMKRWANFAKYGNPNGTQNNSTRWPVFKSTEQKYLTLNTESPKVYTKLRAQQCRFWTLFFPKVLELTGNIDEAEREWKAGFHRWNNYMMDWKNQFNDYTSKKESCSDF
Excerpt: as §1, §2, §3, §4, §5, §6, §7, §8, §9

[3] = read-out: Grade of inhibition in% BChE

| Structure (SMILES) | Grade of inhibition in% AChE ([1]; c = 30 µM) | Grade of inhibition in% BChE ([2]; c = 30 µM) | Grade of inhibition in% AChE ([1]; c = 10 µM) | Grade of inhibition in% BChE ([2]; c = 10 µM) | Type of Inhibition [1] | Ki' (uncompetitive inhibition) [1] | Ki [1] | Type of Inhibition [2] | Ki′ (uncompetitive inhibition) [2] | Ki [2] | selectivity F (percent inhibition for AChE divided by percent inhibition for BChE) ([2]; towards BChE) | inhibition at 10 µM [2, 3] | inhibition at 30 µM [2, 3] |
| --- | --- | --- | --- | --- | --- | --- | --- | --- | --- | --- | --- | --- | --- |
| CC(=O)OC1CCC2(C)C(CCC3(C)C2CC=C2C4CC(C)(C)CCC4(C(=O)NCCN)CCC23C)C1(C)C (stereo not drawn) [Compound 12, (3β)-N-(2-Aminoethyl)-3-acetyloxy-olean-12-en-28-amide] | 31.69 ± 0.04% | 57.54 ± 0.93% | – | – | – | – | – | – | – | – | – | – | – |
| CC(=O)OC1CC2(C)C(CCC3(C)C2CC=C2C4CC(C)(C)CCC4(C(=O)NCCN)CCC23C)C(C)(C)C1OC(C)=O (stereo not drawn) [Compound 13, (2α,3β)-N-(2-Aminoethyl)-2,3-diacetyloxy-olean-12-en-28-amide] | – | – | 31.91 ± 0.32% | 40.83 ± 0.21% | – | – | – | – | – | – | – | – | – |
| C=C(C)C1CC[C@]2(C(=O)NCCN)CC[C@]3(C)C(CCC4[C@@]5(C)CC[C@H](OC(C)=O)C(C)(C)C5CC[C@]43C)C12 (stereo partly shown) [Compound 14] | – | – | 56.17 ± 0.64% | 42.70 ± 1.33% | – | – | – | – | – | – | – | – | – |
| CC(=O)O[C@H]1CC[C@]2(C)[C@H]3CC[C@@H]4[C@H]5[C@H](C(C)=O)CC[C@]5(C(=O)NCCN)CC[C@@]4(C)[C@]3(C)CC[C@H]2C1(C)C [Compound 15] | – | – | 44.71 ± 0.24% | 29.55 ± 2.97% | mixed-type | 6.83 ± 0.17 µM | 3.06 ± 0.38 µM | mixed-type | 17.14 ± 1.67 µM | 11.9 ± 1.17 µM | – | – | – |
| C[C@@H]1CC[C@]2(C(=O)NCCN)CC[C@]3(C)C(=CCC4[C@@]5(C)CC[C@H](O)C(C)(C)C5CC[C@]43C)C2[C@H]1C (stereo partly shown) [Compound 16] | – | – | 28.54 ± 0.51% | 64.10 ± 1.04% | – | – | – | mixed-type | 12.15 ± 0.45 µM | 5.55 ± 0.12 µM | – | – | – |
| CC1(C)CC[C@]2(C(=O)NCCN)CC[C@]3(C)C(=CC[C@@H]4[C@@]5(C)CC[C@H](O)C(C)(C)[C@@H]5CC[C@]43C)[C@@H]2C1 [Compound 17, (3β)-N-(2-Aminoethyl)-3-hydroxy-olean-12-en-28-amide] | – | – | 88.61 ± 0.22% | 49.10 ± 0.47% | mixed-type | 18.24 ± 0.06 µM | 8.53 ± 0.34 µM | mixed-type | 7.68 ± 0.61 µM | 1.93 ± 0.13 µM | – | – | – |
| CC1(C)CCC2(C(=O)NCCN)CCC3(C)C(=CCC4C5(C)CC(O)C(O)C(C)(C)C5CCC43C)C2C1 (stereo not drawn) [Compound 18, (2α,3β)-N-(2-Aminoethyl)-2,3-dihydroxy-olean-12-en-28-amide] | 39.15 ± 0.16% | 68.83 ± 1.57% | – | – | – | – | – | – | – | – | – | – | – |
| C=C(C)C1CC[C@]2(C(=O)NCCN)CC[C@]3(C)C(CCC4[C@@]5(C)CC[C@H](O)C(C)(C)C5CC[C@]43C)C12 (stereo partly shown) [Compound 19] | – | – | 62.95 ± 0.61% | 36.70 ± 5.34% | – | – | – | – | – | – | – | – | – |
| CC(=O)[C@@H]1CC[C@]2(C(=O)NCCN)CC[C@]3(C)[C@H](CC[C@@H]4[C@@]5(C)CC[C@H](O)C(C)(C)[C@@H]5CC[C@]43C)[C@@H]12 [Compound 20] | – | – | 37.09 ± 0.97% | 12.98 ± 0.35% | mixed-type | 9.71 ± 0.03 µM | 7.18 ± 0.02 µM | mixed-type | > 110 µM | 8.37 ± 0.67 µM | – | – | – |
| CC(=O)O[C@H]1CC[C@@]2(C)C(CC[C@]3(C)C2CC=C2C4[C@@H](C)[C@H](C)CC[C@]4(C(=O)NCCN(C)C)CC[C@]23C)C1(C)C (stereo partly shown) [Compound 21] | – | – | 10.78 ± 0.12% | 36.50 ± 0.30% | – | – | – | mixed-type | 143.36 ± 0.02 µM | 6.48 ± 0.1 µM | – | – | – |
| C=C(C)C1CC[C@]2(C(=O)NCCN(C)C)CC[C@]3(C)C(CCC4[C@@]5(C)CC[C@H](OC(C)=O)C(C)(C)C5CC[C@]43C)C12 (stereo partly shown) [Compound 24] | – | – | 13.10 ± 1.32% | 67.75 ± 0.69% | – | – | – | mixed-type | – | – | – | – | – |
| CC(=O)O[C@H]1CC[C@]2(C)[C@H]3CC[C@@H]4[C@H]5[C@H](C(C)=O)CC[C@]5(C(=O)NCCN(C)C)CC[C@@]4(C)[C@]3(C)CC[C@H]2C1(C)C [Compound 25] | – | – | no inhibition | 88.49 ± 0.58% | – | – | – | mixed-type | – | – | – | – | – |
| C[C@@H]1CC[C@]2(C(=O)NCCN(C)C)CC[C@]3(C)C(=CCC4[C@@]5(C)CC[C@H](O)C(C)(C)C5CC[C@]43C)C2[C@H]1C (stereo partly shown) [Compound 26] | 33.53 ± 0.44% | 77.74 ± 0.59% | – | – | – | – | – | mixed-type | 3.10 ± 0.30 µM | 1.11 ± 0.09 µM | – | – | – |
| CN(C)CCNC(=O)C12CCC(C)(C)CC1C1=CCC3C4(C)CCC(O)C(C)(C)C4CCC3(C)C1(C)CC2 (stereo not drawn) [Compound 27, (3β)-N-[2-(Dimethylamino)-ethyl]-3-hydroxy-olean-12-en-28-amide] | – | – | 5.54 ± 0.07% | 67.10 ± 0.07% | – | – | – | mixed-type | 9.07 ± 0.02 µM | 1.31 ± 0.01 µM | 0.08 | – | – |
| CN(C)CCNC(=O)[C@]12CCC(C)(C)C[C@H]1C1=CC[C@@H]3[C@@]4(C)C[C@@H](O)[C@H](O)C(C)(C)[C@@H]4CC[C@@]3(C)[C@]1(C)CC2 [Compound 28, (2α,3β)-N-[2-(Dimethylamino)-ethyl]-2,3-dihydroxy-olean-12-en-28-amide] | 13.47 ± 0.55% | 79.01 ± 0.29% | – | – | – | – | – | mixed-type | 27.26 ± 3.47 µM | 2.2 ± 0.25 µM | – | – | – |
| C=C(C)C1CC[C@]2(C(=O)NCCN(C)C)CC[C@]3(C)C(CCC4[C@@]5(C)CC[C@H](O)C(C)(C)C5CC[C@]43C)C12 (stereo partly shown) [Compound 29] | 22.12 ± 4.01% | 56.68 ± 0.01% | – | – | – | – | – | mixed-type | 16.11 ± 0.18 µM | 3.52 ± 0.07 µM | – | – | – |
| CC(=O)[C@@H]1CC[C@]2(C(=O)NCCN(C)C)CC[C@]3(C)[C@H](CC[C@@H]4[C@@]5(C)CC[C@H](O)C(C)(C)[C@@H]5CC[C@]43C)[C@@H]12 [Compound 30] | 28.83 ± 0.80% | 89.76 ± 0.48% | – | – | mixed-type | 74.05 ± 4.81 µM | 15.5 ± 3.91 µM | mixed-type | 4.46 ± 0.01 µM | 1.12 ± 0.01 µM | – | – | – |
| COc1ccc2c3c1O[C@H]1C[C@@H](O)C=C[C@@]31CCN(C)C2 [GH, Galantamine hydrobromide, reference compound] | – | – | – | – | – | – | – | competitive | – | – | – | 57.79 ± 0.52% | 80.25 ± 0.33% |
